From patent publication US8445510B2, “Fused bicyclic kinase inhibitors” (OSI Pharmaceuticals, LLC, priority 2011, dated 2013)
pIC50: −log10 of the molar value.

How the values were obtained:
Karpas-299 cells = assay: Karpas-299 cell proliferation assay (CellTiter-Glo); format: cell-based; details: Homo sapiens, 72 h; Karpas-299 cell line (NPM-ALK); 3 days incubation; at least duplicate experiments; read-out: Prolif. IC50
RON = target: T1, RON (Homo sapiens, UniProt Q04912); assay: sfRON cell mechanistic assay (HeLa), phosphorylated RON ELISA; format: cell-based; details: HeLa cells transfected with sfRON; inhibition of phosphorylated RON; four hours incubation; at least duplicate experiments; read-out: sfRON mech IC50
T1 sequence (Q04912 913-1400): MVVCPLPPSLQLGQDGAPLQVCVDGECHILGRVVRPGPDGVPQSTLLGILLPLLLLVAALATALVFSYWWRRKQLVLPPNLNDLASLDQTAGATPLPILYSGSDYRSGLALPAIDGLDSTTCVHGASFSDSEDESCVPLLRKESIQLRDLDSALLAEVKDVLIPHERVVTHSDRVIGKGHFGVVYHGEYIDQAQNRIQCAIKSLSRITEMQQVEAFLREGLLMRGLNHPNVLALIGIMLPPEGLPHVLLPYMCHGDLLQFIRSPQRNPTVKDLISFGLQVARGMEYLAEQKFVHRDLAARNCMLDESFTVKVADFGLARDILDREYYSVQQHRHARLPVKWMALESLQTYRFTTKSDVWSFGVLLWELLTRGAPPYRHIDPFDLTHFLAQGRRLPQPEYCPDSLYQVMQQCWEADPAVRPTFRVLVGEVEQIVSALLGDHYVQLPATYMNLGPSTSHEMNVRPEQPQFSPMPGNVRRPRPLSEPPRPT
Outline: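 HeLa cells transiently transfected with sfRON plasmid, then exposed 4 h at 37 °C to a 6-point compound series (typically 10 μM to 3 nM, 0.5% DMSO). Phospho-RON (pY1238/1239) in lysates measured by sandwich ELISA with luminescence. IC50 from 4-parameter fit of percent-of-DMSO-control data, at least duplicate runs.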

SMILES	pIC50 (Karpas-299 cells)	pIC50 (RON)
COc1cc(OC)c(Cl)c([C@@H](C)c2c[nH]c3ncc(-c4cnn([C@H]5CC[C@H](O)CC5)c4C)cc23)c1Cl [Example 106, trans-4-(4-{3-[(1S)-1-(2,6-Dichloro-3,5-dimethoxyphenyl)ethyl]-1H-pyrrolo[2,3-b]pyridin-5-yl}-5-methyl-1H-pyrazol-1-yl)cyclohexanol]	6.00 to 6.70	6.00 to 6.70
COc1ccc(F)c(Cl)c1[C@@H](C)c1c[nH]c2ncc(-c3cn(C[C@@H](O)CO)nc3C(F)(F)F)cc12 [Example 34, (2R)-3-[4-{3-[(1S)-1-(2-Chloro-3-fluoro-6-methoxyphenyl)ethyl]-1H-pyrrolo[2,3-b]pyridin-5-yl}-3-(trifluoromethyl)-1H-pyrazol-1-yl]propane-1,2-diol]	6.00 to 6.70	< 6.00
CCc1c(-c2cnc3[nH]cc([C@H](C)c4c(OC(F)F)ccc(F)c4Cl)c3c2)cnn1CC(C)(C)O [Example 72, 1-[4-(3-{(1S)-1-[2-Chloro-6-(difluoromethoxy)-3-fluorophenyl]ethyl}-1H-pyrrolo[2,3-b]pyridin-5-yl)-5-ethyl-1H-pyrazol-1-yl]-2-methylpropan-2-ol]	6.70 to 7.30	6.00 to 6.70
COc1ccc(F)c(Cl)c1[C@@H](C)c1c[nH]c2ncc(-c3cncn3C)cc12 [Example 64, 3-[(1S)-1-(2-Chloro-3-fluoro-6-methoxyphenyl)ethyl]-5-(1-methyl-1H-imidazol-5-yl)-1H-pyrrolo[2,3-b]pyridine]	6.00 to 6.70	< 6.00
COc1ccc(F)c(Cl)c1[C@@H](C)c1c[nH]c2ncc(-c3cn(C)nc3C#N)cc12 [Example 46, 4-{3-[(1S)-1-(2-Chloro-3-fluoro-6-methoxyphenyl)ethyl]-1H-pyrrolo[2,3-b]pyridin-5-yl}-1-methyl-1H-pyrazole-3-carbonitrile]	6.00 to 6.70	< 6.00
COc1ccc(F)c(Cl)c1[C@@H](C)c1c[nH]c2ncc(-c3cnn([C@H]4CC[C@@H](O)CC4)c3C)cc12 [Example 52, cis-4-(4-{3-[(1S)-1-(2-Chloro-3-fluoro-6-methoxyphenyl)ethyl]-1H-pyrrolo[2,3-b]pyridin-5-yl}-5-methyl-1H-pyrazol-1-yl)cyclohexanol]	6.70 to 7.30	6.00 to 6.70

The remaining lines, values ahead:

pIC50 (Karpas-299 cells)	pIC50 (RON)	SMILES
6.70 to 7.30	6.00 to 6.70	CCc1nn([C@H]2CC[C@H](O)CC2)cc1-c1cnc2[nH]cc([C@H](C)c3c(OC)ccc(F)c3Cl)c2c1 [Example 47, trans-4-(4-{3-[(1S)-1-(2-Chloro-3-fluoro-6-methoxyphenyl)ethyl]-1H-pyrrolo[2,3-b]pyridin-5-yl}-3-ethyl-1H-pyrazol-1-yl)cyclohexanol]
≥ 7.30	6.00 to 6.70	COc1ccc(F)c(Cl)c1[C@@H](C)c1c[nH]c2ncc(-c3cnn([C@@H]4C[C@@H](O)[C@@H](O)C4)c3C)cc12 [Example 31, (1R,2S,4S)-4-(4-{3-[(1S)-1-(2-Chloro-3-fluoro-6-methoxyphenyl)ethyl]-1H-pyrrolo[2,3-b]pyridin-5-yl}-5-methyl-1H-pyrazol-1-yl)cyclopentane-1,2-diol]
≥ 7.30	6.00 to 6.70	COc1ccc(F)c(Cl)c1[C@@H](CF)c1c[nH]c2ncc(-c3cnn([C@H]4CC[C@H](O)CC4)c3C)cc12 [Example 121, trans-4-(4-{3-[(1S)-1-(2-Chloro-3-fluoro-6-methoxyphenyl)-2-fluoroethyl]-1H-pyrrolo[2,3-b]pyridin-5-yl}-5-methyl-1H-pyrazol-1-yl)cyclohexanol]
6.70 to 7.30	< 6.00	COc1ccc(F)c(Cl)c1[C@@H](C)c1c[nH]c2ncc(-c3c(C)nn(C)c3C)cc12 [Example 4, 3-[(1S)-1-(2-Chloro-3-fluoro-6-methoxyphenyl)ethyl]-5-(1,3,5-trimethyl-1H-pyrazol-4-yl)-1H-pyrrolo[2,3-b]pyridine]
6.70 to 7.30	6.00 to 6.70	COc1ccc(F)c(Cl)c1[C@@H](C)c1c[nH]c2ncc(-c3cn(CC(C)(C)O)nc3C)cc12 [Example 7, 1-(4-{3-[(1S)-1-(2-Chloro-3-fluoro-6-methoxyphenyl)ethyl]-1H-pyrrolo[2,3-b]pyridin-5-yl}-3-methyl-1H-pyrazol-1-yl)-2-methylpropan-2-ol]
